From publication PMC9654784, “Targeting SARS-CoV-2 nsp13 Helicase and Assessment of Druggability Pockets: Identification of Two Potent Inhibitors by a Multi-Site In Silico Drug Repurposing Approach” (Molecules, 2022) come the findings set out here.

The target of experiment [1] is T1, SARS-CoV-2 nsp13 (Severe acute respiratory syndrome coronavirus 2, UniProt P0DTD1). In words: SARS-CoV-2 nsp13 unwinding-associated activity. Format: biochemical. The settings on record: for IC50: concentration required to inhibit nsp13-associated unwinding activity by 50%, 1 nM nsp13, 1 mM ATP, 750 nM DNA substrate; for Percentage of control, unwinding activity: measured in the presence of the highest tested compound concentration. The protocol: (§1) The SARS-CoV-2 nsp13 his-tagged was expressed in E. coli BL21 Rosetta 2 cells from a pNIC-ZB (addgene #159614). A purification protocol was adopted from Newman et al.. Terrific Broth media was used to culture the cells at 37 °C and at 200 rpm until 1.6 OD600. Then, protein expression was induced with […] for 16 h at 18 °C, at 200 rpm, and then pelleted and resuspended in lysis buffer (50 mM HEPES pH 7.5, 500 mM NaCl, 5% Glycerol, 10 mM Imidazole, 0.5 mM TCEP, Merck Protease inhibitor cocktail III, 1:500). After sonication and clarification at 15,000× g for 30 min, the crude extract was used for a batch binding of 40 min in a three-dimensional rotating mixer with 5 mL of Ni-sepharose (cytiva) under orbital. Then, the tubes were centrifuged at 700× g at 4 °C for 5 min, and the resin was loaded onto a gravity flow column (econo column BioRad) connected to a BioLogic LP (BioRad). It was subsequently washed (1 mL/min) with a lysis buffer for 40 min and with a wash buffer (50 mM HEPES pH 7.5, 500 mM NaCl, 5% Glycerol, 45 mM Imidazole, 0.5 mM TCEP) for 25 min. A further 10 min wash with a Hi-salt buffer (50 mM HEPES pH 7.5, 1 M NaCl, 5% Glycerol, 0.5 mM TCEP) was performed, followed by another 10 min of wash buffer. Proteins were eluted with the addition of 15 mL of elution buffer (50 mM HEPES pH 7.5, 500 mM NaCl, 5% Glycerol, 300 mM Imidazole, 0.5 mM TCEP). The elution fraction was analyzed for purity by SDS page, and clean fractions were pooled and dialyzed against a desalting buffer containing 25 mM HEPES pH 7.5, 250 mM NaCl, 20% Glycerol, and 0.25 mM TCEP. Proteins were stored at −80 °C.
The SARS-CoV-2 nsp13 unwinding-associated activity was measured in black 384-well plates (PerkinElmer). The reaction mixture, as described in [34], contained 20 mM Tris–HCl pH 7.2. 50 mM NaCl, 2 mM MgCl2, 10 μg/mL of BSA, 180 μM TCEP, 2 μM Hel Capture oligo (5′- […] -3′) (Biomers) 5% DMSO or inhibitor, and 1 nM of purified nsp13. The enzyme was pre-incubated for 10 min with the inhibitor at room temperature, and then reaction was started by adding 1 mM ATP and 750 nM annealed DNA substrate (5′- […]-Cy3-3′. 5′- BHQ-2-[…]-3′) (Biomers). Reaction volume was 40 μL. Compounds SSYA10-001 and Licoflavone C were used as positive controls of inhibition; the reaction lasted for 15 min at 37 °C, and then the products were measured with Victor Nivo (Perkin) at 530/580 nm.

Experiment [2] deals with T1, SARS-CoV-2 nsp13. In words: SARS-CoV-2 nsp13 ATPase (NTPase)-associated activity. The settings on record: for Percentage of control, NTPase activity: measured in the presence of the highest tested compound concentration. Format: biochemical. Here is the method: as §1
The SARS-CoV-2 nsp13 helicase-associated activity was measured in a transparent 96-well plate (PerkinElmer), as described in [34]. Briefly, the reaction mixture contained 20 mM Tris–HCl pH 7.2, 50 mM NaCl, 2 mM MgCl2, 10 µg/mL of BSA, 180 µM TCEP, 5% DMSO or inhibitor, and 25 nM of purified nsp13. The reaction was started by adding 400 µM ATP. Total reaction volume was 25 μL. Compound Licoflavone C was used as positive control of inhibition. The reaction lasted for 30 min at 37 °C. […] The products were measured with Victor Nivo (Perkin) at 650 nm.

Where [3] appears, read: concentration required to inhibit nsp13-associated ATPase activity by 50%, 25 nM nsp13, 400 µM ATP.

A word on the IC50: it is the concentration needed to halve the response being measured. Take `CCO/N=C(\C(=O)N[C@@H]1C(=O)N2C(C(=O)[O-])=C(Sc3nc(-c4cc[n+](C)cc4)cs3)CS[C@H]12)c1nsc(NP(=O)(O)O)n1` [Ceftaroline fosamil]: on SARS-CoV-2 nsp13 [1], the IC50 was over 30 µM and the “Percentage of control, unwinding activity” value came to 100%. The compound further gave an IC50 against SARS-CoV-2 nsp13 [2] (setting [3]) of over 30 µM. The “Percentage of control, NTPase activity” value at SARS-CoV-2 nsp13 [2] was 100%.

For the compound `CC(C)=CCc1c(O)cc(O)c2c(=O)cc(-c3ccc(O)cc3)oc12` [Licoflavone C], the IC50 came to 8.7 ± 1.3 µM on SARS-CoV-2 nsp13 [1] and 20.9 ± 0.8 µM on SARS-CoV-2 nsp13 [2] (setting [3]).

Turning to `CC(C)(Cc1cccc(CC(=O)NCc2cccc(-c3ccc(O)cc3)c2)c1)NC[C@H](O)c1ccc(O)c(NS(C)(=O)=O)c1` [PF-00610355], 22.4 ± 1.7 µM corresponded to half-maximal inhibition against SARS-CoV-2 nsp13 [1] (IC50). On SARS-CoV-2 nsp13 [2] (setting [3]), the IC50 is over 30 µM and the “IC50 NTPase” value was “not active”. At SARS-CoV-2 nsp13 [2], the “Percentage of control, NTPase activity” value was determined as 100%.

With `CC(C)(C)c1cc(NC(=O)NCc2ccccc2Sc2ccc3nnc(-c4ccccc4SCCO)n3c2)n(-c2ccc(O)c(Cl)c2)n1` [PF-03715455], the IC50 came out at 3.02 ± 0.21 µM at SARS-CoV-2 nsp13 [1] and 9.26 ± 1.93 µM against SARS-CoV-2 nsp13 [2] (setting [3]).

As for `OC[C@H]1O[C@@H](Oc2cc(O)cc(/C=C/c3ccc(O)cc3)c2)[C@H](O)[C@@H](O)[C@@H]1O` [Polydatin], at SARS-CoV-2 nsp13 [1], the IC50 was over 30 µM and the “Percentage of control, unwinding activity” value is reported as 100%. Further, on SARS-CoV-2 nsp13 [2] (setting [3]), the IC50 was over 30 µM. The “Percentage of control, NTPase activity” value on SARS-CoV-2 nsp13 [2] is on record as 100%.

Consider `C=CCn1c(CSc2ccccc2[N+](=O)[O-])n[nH]c1=S` [SSYA10-001], for which inhibition against SARS-CoV-2 nsp13 [1] was half-maximal at 2.3 ± 0.7 µM (IC50).

For “nicotinamide adenine dinucleotide [NADH]”, the “Percentage of control, unwinding activity” value on SARS-CoV-2 nsp13 [1] was 100%. Besides, at SARS-CoV-2 nsp13 [2], the “Percentage of control, NTPase activity” value amounted to 100%.
